Test results taken from US20060216336A1, “Transdermal therapeutic system for Parkinson's Disease” (priority 2002, published 2006).

Assay: Placebo-controlled trial in early stage idiopathic Parkinson's disease: rotigotine plasma concentrations during titration and maintenance (Example 5)
Assay type: in vivo, human
Conditions: for rotigotine plasma concentration, Max / rotigotine plasma concentration, Mean / rotigotine plasma concentration, Median / rotigotine plasma concentration, Min: prior removal
Source text: Trial periods consisted of a 4-week pre-treatment (washout) period, a 3-week dose escalation period, a 25-week dose maintenance period, and a 4-week follow-up period for a total duration of 36 weeks.

[1] = Day 1 MP (maintenance period), 13.5 mg/day
[2] = Day 15 TP (titration period), 9.0 mg/day
[3] = Day 57 MP (maintenance period), 13.5 mg/day
[4] = Day 113 MP (maintenance period), 13.5 mg/day
[5] = End of MP (maintenance period), 13.5 mg/day

Compound: CCCN(CCc1cccs1)[C@H]1CCc2c(O)cccc2C1 [rotigotine, (6S)-6{propyl[2-(2-thienyl)ethyl]amino}-5,6,7,8-tetrahydro-1-naphthalenol]
- rotigotine plasma concentration, Max [1]: 2.130 ng/mL
- rotigotine plasma concentration, Mean [1]: 0.757 ng/mL
- rotigotine plasma concentration, Median [1]: 0.714 ng/mL
- rotigotine plasma concentration, Min [1]: 0.064 ng/mL
- rotigotine plasma concentration, Max [2]: 1.580 ng/mL
- rotigotine plasma concentration, Mean [2]: 0.508 ng/mL
- rotigotine plasma concentration, Median [2]: 0.435 ng/mL
- rotigotine plasma concentration, Min [2]: 0.053 ng/mL
- rotigotine plasma concentration, Max [3]: 2.070 ng/mL
- rotigotine plasma concentration, Mean [3]: 0.824 ng/mL
- rotigotine plasma concentration, Median [3]: 0.702 ng/mL
- rotigotine plasma concentration, Max [4]: 2.420 ng/mL
- rotigotine plasma concentration, Mean [4]: 0.825 ng/mL
- rotigotine plasma concentration, Median [4]: 0.713 ng/mL
- rotigotine plasma concentration, Min [4]: 0.122 ng/mL
- rotigotine plasma concentration, Max [5]: 1.800 ng/mL
- rotigotine plasma concentration, Mean [5]: 0.788 ng/mL
- rotigotine plasma concentration, Median [5]: 0.729 ng/mL
- rotigotine plasma concentration, Min [5]: 0.282 ng/mL
- rotigotine plasma concentration over the maintenance phase (FIG. 10): stable concentration
